In experiment [1] the test system is rhP2X7 receptor. Briefly: rhP2X7 receptor activity in stably transfected HEK293 cells (calcium flux and change in membrane potential after agonist activation). In kind it is cell-based, Macaca mulatta (Rhesus monkey). The conditions noted are these: recombinant rhP2X7 receptor. On the procedure: RhP2X7 receptor activity in the stably transfected HEK293 cells was monitored by measuring calcium flux and change in membrane potential subsequent to activation with potent agonists (ATP, Bz-ATP). The membrane potential was measured using the following protocol.
Stably transfected recombinant HEK293 cells were plated into the wells of a 384-well Costar plates (25 μL/well) in growth medium (DMEM without pyruvate (Invitrogen-11965-084) with 10% FBS (Invitrogen 10082-139), 100 U/ml P/S (Invitrogen 15140-148), and 100 ug/mL hygromycin (Roche, 843555) and the plates incubated for 24 hours at 37° C., 5% CO2. Then, 25 μL of membrane potential buffer (Blue dye, Molecular Devices, Sunnyvale, Calif.) was added to the medium and the cells incubated for 30 minutes at 37° C., 5% CO2. Next, about 30 to 100 nL of either analyte or antagonist control or 10 μL agonist 3′-O-(4-benzoylbenzoyl)-ATP (Bz-ATP) (at an EC80) was added to the medium in separate wells of the plates. After incubating the plates for 30 minutes at 37° C., 5% CO2, fluorescence was read using a fluorometric plate reader (FLIPR, Molecular Devices). Data were analyzed using the formula EC50=using (Max−Min); Signal to Noise Ratio (S/B)=Max/Min; Z′ Factor=1−[3*SD of Max)+(3*SD of Min)/(mean of Max−mean of Min).
Calcium flux was measured using the following FLIPR Calcium Flux Assay protocol (Molecular Devices, Sunnyvale, Calif.). […]
For orientation: Calcium flux is commonly read through the fluorescence of an indicator in the cells.

Experiment [2] relates to rhP2X7 receptor. Briefly: calcium flux protocol for high throughput screen using cells that express the rhP2X7 receptor. In kind it is cell-based, Macaca mulatta (Rhesus monkey). The conditions noted are these: agonist used in the example screening protocol; source of the value not stated. Here is the method:
The following is an example of a calcium flux protocol that can be used in a high throughput screen using cells that express the rhP2X7 receptor. The cells are grown to about 75-85% confluence, rinsed with DPBS (5.33 mM KCl, 0.44 mM KH2PO4, 0.3 mM Na2HPO4, 4 mM NaHCO3, 0.1% Glucose, 138 mM N-methyl glucamine), and dissociated with 0.05% trypsin. Then, about 20,000 cells are plated into multiple of the wells of multiwell plates in complete growth medium. The cells are incubated at 37° C. and 5% CO2 for about 20 to 24 hours. Next, about 20 μL FLUO-4 loading buffer (Invitrogen) is added to each of the wells and the cells incubated at RT for 60 minutes. Then, about 10 μL aliquots of each analyte to be tested (final concentration in DMSO about 0.1%) diluted in TR-40 quenching solution (Sigma #T2397) is added to a well containing cells. Controls include antagonists such as KN-62 and Ox-ATP and agonists such as Bz-ATP (at an EC80). The cells are incubated for about 10 minutes at RT.

The results in this text go back to patent US20070122849A1, “Rhesus monkey P2X7 purinergic receptor and uses thereof” (priority 2005, published 2007).

By EC50 is commonly meant the midpoint of the concentration-response curve. `Nc1ncnc2c1ncn2[C@@H]1O[C@H](COP(=O)(O)OP(=O)(O)OP(=O)(O)O)[C@@H](O)[C@H]1O` [ATP]: the EC50 with rhP2X7 receptor [1] was roughly 3000 µM.

As for `Nc1ncnc2c1ncn2[C@@H]1O[C@H](COP(=O)(O)OP(=O)(O)OP(=O)(O)O)[C@@H](OC(=O)c2ccc(C(=O)c3ccccc3)cc2)[C@H]1O` [Bz-ATP, 3′-O-(4-benzoylbenzoyl)-ATP], the EC50 with rhP2X7 receptor [1] is roughly 150 µM.

With `Nc1ncnc2c1ncn2[C@@H]1O[C@H](COP(=O)(O)CP(=O)(O)OP(=O)(O)O)[C@@H](O)[C@H]1O` [a,b-methylene ATP], in the experiment on rhP2X7 receptor [2], the EC50 was determined as 350 µM.
